Molecules are shown by their SMILES.

This assay concerns HIV-1 LTR-III G-quadruplex (FAM/TAMRA-labeled LTR-III). The experiment in a line: FRET melting assay, LTR-III G4. In kind it is binding. Conditions: Table S1 primary screening, ligand:ODN 50:1, singlicate. On the procedure:
To evaluate stabilizing properties of the ligands in a complex with oligodeoxyribonucleotides (ODNs) melting with fluorescence registration was used. ODN (0.5 μM) (Table 1), labeled with 6-carboxyfluorescein (FAM) and 6-carboxytetramethylrhodamine (TAMRA) at the 5′- and 3′-end, respectively, were folded in lithium cacodylate buffer (10 mM, pH 7.4) with 100 mM KCl by heating at 95 °C for 5 min and gradually cooling to r.t. GFP chromophore analogs (5 mM solution in DMSO) were diluted with the same buffer to the final concentration of 25 μM and mixed with an equal volume of 0.5 μM ODN solution resulting in a molar ratio of 50:1 (total volume was 50 μL). For the titration experiments molar ratios of 20:1 and 2:1 were used. Samples were analyzed using DTprime qPCR system (DNA-Technology LLC, Moscow, Russia). Fluorescence was registered by detection of FAM emission at 520 nm upon excitation at 495 nm in the temperature range of 30–95 °C with 1 °C/min gradient. Tm was determined using the instrument software and ΔTm was calculated relative to ODN Tm in a buffer solution containing 0.25% (v/v) DMSO. The primary and secondary screening were carried out in singlicate and triplicate, respectively.
On to `COc1ccc2cc(C(c3ccc(C)cc3)C(c3ccc(C)cc3)c3ccc4cc(OC)ccc4c3)ccc2c1` (centres unmarked) [M 1362.2], for which the “LTR-III ΔTm” value is -0.6 °C. With `CC(C)(C)[Si](Oc1ccc(C=CC=O)cc1)(c1ccccc1)c1ccccc1` [M 1373.2], the “LTR-III ΔTm” value is -0.5 °C. Take `CC1=NC(=CC=Cc2ccc(O)cc2)C(=O)N1C` [M 1378]: the “LTR-III ΔTm” value was -0.7 °C.

`CCN1C(=O)C(=CC=Cc2ccc(O)cc2)N=C1C` [M 1379.2]: the “LTR-III ΔTm” value is -0.2 °C. Regarding `CCC1=NC(=Cc2ccc(O[Si](c3ccccc3)(c3ccccc3)C(C)(C)C)cc2)C(=O)N1O[Si](c1ccccc1)(c1ccccc1)C(C)(C)C` [M 1505], the “LTR-III ΔTm” value is -0.3 °C.

Consider `CCCC1=NC(=Cc2ccc(O[Si](c3ccccc3)(c3ccccc3)C(C)(C)C)cc2)C(=O)N1C` [M 1550], for which the “LTR-III ΔTm” value is -0.1 °C.

On to `CCC1=NC(=Cc2ccc(O[Si](c3ccccc3)(c3ccccc3)C(C)(C)C)cc2)C(=O)N1C` [M 1557], for which the “LTR-III ΔTm” value was -0.1 °C.

`CC1=NC(=Cc2ccco2)C(=O)N1C` [M 1583.2]: the “LTR-III ΔTm” value is -0.5 °C. Regarding `CC1=NC(=Cc2cccs2)C(=O)N1C` [M 1583.3], the “LTR-III ΔTm” value was 0.1 °C. Consider `CC1=NC(=Cc2ccccc2O)C(=O)N1C` [M 1583.4], for which the “LTR-III ΔTm” value is 0.2 °C. The same measure for `COc1ccccc1C=C1N=C(C)N(C)C1=O` [M 1583.5]: 0.1 °C. Take `COc1ccc(/C=C2\N=C(C)N(C)C2=O)cc1OC` [M 1583.6]: the “LTR-III ΔTm” value came out at 0 °C. Consider `CC1=NC(=Cc2ccc(O)c(O)c2)C(=O)N1C` [M 1583.7], for which the “LTR-III ΔTm” value is -1.4 °C. As for `CC1=N/C(=C\c2ccccc2O[Si](c2ccccc2)(c2ccccc2)C(C)(C)C)C(=O)N1C` [M 1586], the “LTR-III ΔTm” value was -0.3 °C. For `CCCCN(CCCC)c1cccc(C=C2N=C(C)N(C)C2=O)c1` [M 1600], the “LTR-III ΔTm” value is -0.4 °C. For `CC1=NC(=Cc2ccc(O[Si](c3ccccc3)(c3ccccc3)C(C)(C)C)c(O)c2)C(=O)N1C` [M 1620], the “LTR-III ΔTm” value came to 0.4 °C. The same measure for `CCN(CC)c1ccc(C=C2N=C(C)N(C)C2=O)cc1` [M 1661]: 0.4 °C; for `Br.CC1=NC(=Cc2ccc(N(C)C)cc2)C(=O)N1CCN` [M 1668]: 0.2 °C. Take `CCN(CC)c1ccc(C=C2N=C(C(C)=O)N(C)C2=O)cc1` [M 1706]: the “LTR-III ΔTm” value is -0.4 °C. For `COc1ccc(C=C2N=C(C)N(C)C2=O)cc1` [M 1814], the “LTR-III ΔTm” value was -0.3 °C.

For `CCOC(=O)CN1C(=O)C(=Cc2ccc(O)cc2)N=C1C` [M 1831.1], the “LTR-III ΔTm” value is -0.2 °C. As to `CCCC1=NC(=C(N)c2ccccc2)C(=O)N1` [M 1862], the “LTR-III ΔTm” value is -1.1 °C.

For `CCCC1=NC(=C(NB(F)F)c2ccccc2)C(=O)N1` [M 1878.1], the “LTR-III ΔTm” value is -1.5 °C. Turning to `CCN(CC)c1ccc(/C=C2\N=C(C)N(C)C2=O)c(O)c1` [M 1933], the “LTR-III ΔTm” value is -0.3 °C.

In the case of `COc1ccc(C=C2N=C(Nc3ccccc3)N(C)C2=O)cc1` [M 1944b], the “LTR-III ΔTm” value was -0.3 °C. Regarding `CCCC1=NC(=CN(C)C)C(=O)N1C` [M 1945.1], the “LTR-III ΔTm” value is -0.6 °C.

As for `CCN(CC)c1ccc(C=C2N=C(C=Cc3ccc(OC)cc3)N(C)C2=O)c(B(F)F)c1` [M 1971a], the “LTR-III ΔTm” value was -0.3 °C. As for `CCN(CC)c1ccc(C=C2N=C(C=CC=Cc3ccc(OC)cc3)N(C)C2=O)c(B(F)F)c1` [M 1971c], the “LTR-III ΔTm” value came to 0.6 °C. Consider `CC1=NC(=Cc2c[nH]c3cccc(C)c23)C(=O)N1C` [M 1974], for which the “LTR-III ΔTm” value is 0 °C. Next, `CC(=O)C1=N/C(=C\c2c[nH]c3ccccc23)C(=O)N1C` [M 1975]: -0.6 °C; `CCC(=O)n1cc(C=C2N=C(CC)OC2=O)c2c(C)cccc21` [M 1977]: 0 °C; `CCC1=NC(=Cc2c[nH]c3cccc(C)c23)C(=O)N1C` [M 1978]: -0.1 °C.

Regarding `CCC(=O)NC(=Cc1c[nH]c2cccc(C)c12)C(=O)NC` [M 1979], the “LTR-III ΔTm” value is -0.1 °C. The same measure for `CC(=O)C1=NC(=Cc2c[nH]c3cccc(C)c23)C(=O)N1C` [M 1981]: 1.7 °C. Consider `CC1=NC(=Cc2ccncc2)C(=O)N1C` [M 1998], for which the “LTR-III ΔTm” value is -0.4 °C.

On to `CC1=NC(=Cc2ccc(N(C)C)cc2)C(=O)N1CCNC(=O)OC(C)(C)C` [M 2022a], for which the “LTR-III ΔTm” value is -0.2 °C. Consider `COc1ccc(C=C2N=C(C)N(CCNC(=O)OC(C)(C)C)C2=O)cc1` [M 2022b], for which the “LTR-III ΔTm” value was 0 °C.

On to `CC1=NC(=Cc2ccccc2)C(=O)N1CCNC(=O)OC(C)(C)C` [M 2022d], for which the “LTR-III ΔTm” value is -0.3 °C.

Take `COc1ccc(C=C2N=C(C)N(CCNC(=O)OC(C)(C)C)C2=O)cc1OC` [M 2022e]: the “LTR-III ΔTm” value came out at 0 °C. Take `CCN(CC)c1ccc(C=C2N=C(C)N(CCNC(=O)OC(C)(C)C)C2=O)cc1` [M 2026c]: the “LTR-III ΔTm” value was determined as 0.2 °C. The same measure for `COc1cccc(C=C2N=C(C)N(CCNC(=O)OC(C)(C)C)C2=O)c1` [M 2026f]: -0.4 °C. In the case of `COc1ccc(C=C2C(=O)N(C)C(C)=[N+]2C)cc1.O=S(=O)([O-])C(F)(F)F` [M 2060], the “LTR-III ΔTm” value is -0.2 °C. Regarding `CCN(CC)C(=S)Oc1ccc(C=C2N=C(c3ccccc3)N(C)C2=O)cc1` [M 2069], the “LTR-III ΔTm” value is -0.4 °C.

With `CCN(CC)C(=O)Sc1ccc(C=C2N=C(c3ccccc3)N(C)C2=O)cc1` [M 2075], the “LTR-III ΔTm” value came to 0.3 °C. `CCN(CC)C(=S)Oc1ccc(C=C2N=C(C)N(C)C2=O)cc1` [M 2081]: the “LTR-III ΔTm” value was 0.1 °C. For `CCCC1=N/C(=C\c2ccncc2)C(=O)N1C` [M 2237], the “LTR-III ΔTm” value was -0.3 °C.

With `CC1=NC(=Cc2ccncc2)C(=O)N1CCNC(=O)OC(C)(C)C` [M 2250.2], the “LTR-III ΔTm” value was -0.1 °C. Regarding `CC1=NC(=Cc2cc(C(C)(C)C)c(O)c(C(C)(C)C)c2)C(=O)N1C` [M 2273.1], the “LTR-III ΔTm” value amounted to 0.2 °C. Next, `CCOC(=O)CN1C(=O)C(=Cc2ccc(O)c(F)c2)N=C1C` [M 2286.1]: -0.3 °C; `CC1=NC(=Cc2cc(F)c(O)c(F)c2)C(=O)N1C` [M 2296]: -0.4 °C. The same measure for `COc1ccc(O)c(C=C2N=C(C)N(C)C2=O)c1` [M 2360]: -0.3 °C; for `CN1C(=O)C(=Cc2ccc(N(C)C)cc2)N=C1C=Cc1cc(Br)c(O)c(Br)c1` [M 2368c]: 0 °C.

For the compound `CCN(CC)c1ccc(C=C2N=C(C=Cc3cc(Br)c(O)c(Br)c3)N(C)C2=O)cc1` [M 2368d], the “LTR-III ΔTm” value amounted to 0.1 °C.

Consider `CC(=O)Oc1ccc(C=C2N=C(C)N(C)C2=O)cc1` [M 2370], for which the “LTR-III ΔTm” value was found to be 0 °C.

With `COc1ccc(/C=C2N=C(/C=C/N3CCOCC3)N(C)C\2=O)cc1` [M 2371c], the “LTR-III ΔTm” value is -0.1 °C. Next, `CN1C(=O)C(=Cc2ccc(O)cc2)N=C1C(=O)c1ccccc1` [M 2372a]: 0.1 °C. As for `CCC(=O)C1=NC(=Cc2ccc(O)cc2)C(=O)N1C` [M 2372в], the “LTR-III ΔTm” value was -0.2 °C. As to `CC1=NC(=Cc2cccc(C(F)(F)F)c2)C(=O)N1C` [M 2375], the “LTR-III ΔTm” value was -0.2 °C.

In the case of `COc1ccc(C=C2N=C(C)N(C)C2=O)c(OC)c1` [M 2379], the “LTR-III ΔTm” value turned out to be 0.1 °C.

The record behind these values is article PMC8533149 (Biomolecules, 2021).
